The target in experiment [1] is T1, STING (Homo sapiens, UniProt Q86WV6). In words: Western Blot analysis for STING degradation in H596 cells. The format is cell-based. The settings on record: 24h; reference protein beta-actin. The protocol:
(§1) For cell lysing for Western Blot analysis cell culture plates were brought to ice, supernatant was removed by aspiration and cells washed 2x in ice-cold DPBS. Cells were lysed in 65 µL of RIPA buffer supplemented with cOmplete ULTRA Tablets protease inhibitor cocktail, PIERCE Phosphatase inhibitor mini tablet, Benzonase and 10mM NaF for 20 min on ice. Lysates were collected, cleared by centrifugation (13000xg for 10 min at 4°C). Samples were either analysed directly or stored at -80°C until analysis.
(§2) For Western Blotting, total protein concentration in each lysate was determined using PIERCE Gold BCA Assay kit according to manufactures protocol. 6 µg of total protein was mixed with 2x Laemmli buffer containing DTT, boiled for 5 min at 95°C, cooled on ice and loaded into each well of a 4-20% Criterion TGX gel. Proteins were separated by electrophoresis, by running for 1h at 150V. After separation proteins were blotted onto a PVDF membrane by semi-dry transfer using Trans-Blot turbo system at pre-defined BioRad MIDI protocol; 25V, 1A (fixed) for 30 min. Membranes were blocked for 1h in 5% skim milk in TBS-T20 on a rocker at room temperature followed by washing and exposure to primary antibodies against human STING 1:1000 (Cell Signalling, #13647) or loading controls Vinculin 1:1000 (Cell Signalling, #13901) or beta-Actin 1:10000 (Sigma, A5441) all diluted in 5% BSA in TBS-T20. Membranes were probed over night at 4°C on a rocker. Membranes were washed 3x in TBS-T20 followed by exposure to secondary HRP-conjugated anti-rabbit antibody or HRP-conjugated anti-mouse antibody diluted 1:10000 in 5% skim milk in TBS-T20 as appropriate. Membranes were incubated for 1h at room temperature on a rocker, then washed 3x in TBS-T20.
(§3) For generating DC50 values, the intensity of individual bands was measured using imaged and expression levels were calculated as a ratio of STING intensities vs. Reference protein intensities and normalized to DMSO control. The normalized ratios were plotted on a XY curve in GraphPad Prism where DC50 was estimated using a 4-parameter non-linear regression fitting curve.
To assess STING degradation in H596 cells (ATCC, HTB-178) cells were seeded at a density of 100.000 cells/well in 24-well Nunclon Delta surface treated culture plate in RPMI-1640 growth medium (supplemented with 10% FBS, 1% Pen-strep). Cells were incubated over-night at 37°C 5% CO2 to allow adhesion. Next day growth medium was renewed and a 5x concentration of test compounds (2.5% DMSO) diluted in growth medium were added to the appropriate well. Final DMSO concentration was 0.5%. Cell culture plates were returned to the incubator for additional 24h. Final test compound concentrations were 0.22 µM, 0.67 µM, 2 µM and 6 µM.
For cell lysis, western blotting and data analysis, the methods described above for HFF-1 cells were applied.
(In western blotting, separated proteins are transferred to a membrane and probed.)

The target in experiment [2] is C-terminal domain (CTD) of human STING (Homo sapiens, UniProt Q86WV6). In words: STING binding FP assay III. Details: recombinant human STING protein (155-379). Particulars: 10 nM STING (FP assay III according to the text); read-out: STING binding FP assay II, IC50. A digest of the protocol:
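FP competition assay using 10 nM recombinant human STING (155-379) and 4 nM fluorescein-labelled STING ligand in 150 mM NaCl, 50 mM HEPES pH 7.5, 1 mM DTT with Tween-20. Plates were incubated 20 min at room temperature and read at Ex 485/Em 528 nm. IC50 values came from four-parameter fits.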

Experiment [3] has as its target T1, STING. In words: Inhibition of STING-agonist-induced IFN-β release in H596 cells (H596 STING inhibition assay). Type of experiment: cell-based. Particulars: 24h with compound, then 0.3 µM GSK STING agonist, 6h; ELISA. The protocol:
Cell supernatants were analysed for IFN-β release using DuoSet human IFN-β ELISA (R&D systems, DY-814) following manufactures protocol except using 96-well, half-volume plates from Corning and subsequently use half volume for all steps throughout the protocol. In brief, plates were coated o/n with a 130x dilution of capturing antibody in PBS. Wells were washed 3x with PBS-T20 followed by blocking with 1% BSA diluted in TBS-T20 for 1h. Wells were washed 3x with PBS-T20 and standards (n=2) and samples (n=3) were added to the plate and incubated for 2h at rt. Wells were washed 3x with PBS-T20 and detection antibody diluted 1:60 in 1% BSA in PBS was added to each well and incubated for 2h at rt. Plates were washed 3x with PBS-T20 and Streptavidin-HRP diluted 1:40 in 1% BSA in PBS was added pr well and incubated for 30 min at rt. The wells were washed 4x with PBS-T20 and TMB One Substrate (Promega) was added and incubated for 5-10 min in the dark. When fully developed, 1 mmol/L Sulfuric acid was added to stop the reaction. Signals were measured using BioTek Synergy H1 plate reader at 450nm and 570nm (reference).
Raw data values were quantified based on the standard curve using blank subtracted Δ450nm-570nm values generated using the Gen5 software connected to the plate reader. Concentrations were plotted into GraphPad Prism to calculate EC50 values using a 4-parameter non-linear regression fitting curve, bottom constrains set for >0.
To determine cellular effects of test compounds, we assessed inhibition of STING-agonist-induced IFN-β release in H596 cells (ATCC, HTB-178). Cells were seeded at a density of 25.000 cells/well in 96-well Nunclon Delta surface treated culture plate in RPMI-1640 growth medium (supplemented with 10% FBS, 1% Pen-strep). Cells were incubated over-night at 37°C 5% CO2 to allow adhesion. Next morning growth medium was renewed and a 10x concentration, 3-step dilution series of test compounds diluted in growth medium (5% DMSO) were added to the appropriate well. Final DMSO concentration was 0.5%. Cells were further incubated for 24h followed by incubation with a 10x concentration of GSK STING agonist (CAS number: 2138299-34-8), final concentration was 0.3 µM. Cells culture plates were further incubated, and supernatants were harvested after 6h and immediately stored at -20°C until determination of IFN-β release.
For ELISA and data analysis, the methods described above for HFF-1 cells were applied.
For orientation: ELISA stands for enzyme-linked immunosorbent assay.

Experiment [4] addresses T1, STING. The experiment is described as follows: Western Blot analysis for STING degradation (DC50) in HFF-1 cells. Type of experiment: cell-based. The settings on record: 24h; reference protein vinculin. Details: host or cells: HFF-1 human foreskin fibroblasts. As to the method:
To assess STING degradation in human foreskin fibroblasts HFF-1 cells (ATCC, SCRC-1041) cells were seeded at a density of 60.000 cells/well in 24-well Nunclon Delta surface treated culture plate in DMEM growth medium (supplemented with 10% FBS, 1% Pen-strep). Cells were incubated over-night at 37°C 5% CO2 to allow adhesion. Next day growth medium was renewed and a 5x concentration of test compounds (2.5% DMSO) diluted in growth medium were added to the appropriate well. The final DMSO concentration were 0.5%. Cell culture plates were returned to the incubator for additional 24h.
as §1, §2, §3

T1 sequence (Q86WV6 whole entry): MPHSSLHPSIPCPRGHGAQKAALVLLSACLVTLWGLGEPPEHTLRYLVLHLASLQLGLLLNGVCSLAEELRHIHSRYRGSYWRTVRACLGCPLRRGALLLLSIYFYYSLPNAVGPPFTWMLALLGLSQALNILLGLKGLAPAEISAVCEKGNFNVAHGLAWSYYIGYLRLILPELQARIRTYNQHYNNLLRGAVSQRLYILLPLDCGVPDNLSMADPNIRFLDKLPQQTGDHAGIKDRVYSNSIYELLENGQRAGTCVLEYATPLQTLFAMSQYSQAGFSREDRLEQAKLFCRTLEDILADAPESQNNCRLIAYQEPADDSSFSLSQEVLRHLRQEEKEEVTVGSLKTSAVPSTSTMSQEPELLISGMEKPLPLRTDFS
Sequence of C-terminal domain (CTD) of human STING (Q86WV6 155-379): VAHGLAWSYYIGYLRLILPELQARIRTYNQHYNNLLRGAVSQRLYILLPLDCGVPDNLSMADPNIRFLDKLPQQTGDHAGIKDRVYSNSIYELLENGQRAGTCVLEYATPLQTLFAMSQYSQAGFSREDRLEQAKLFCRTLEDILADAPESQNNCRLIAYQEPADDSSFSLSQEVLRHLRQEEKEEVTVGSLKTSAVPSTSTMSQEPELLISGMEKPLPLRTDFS

Take `CCn1nc(C)cc1C(=O)N=c1n(C)c2cc(C(N)=O)ccc2n1CCC(CCn1c(=NC(=O)c2cc(C)nn2CC)n(C)c2cc(C(N)=O)ccc21)OCC(=O)NCCOCCOCCOCCOCCC(=O)N1CCN(C(=O)CCC(=O)NCCCCOc2cc(-c3scnc3C)ccc2CNC(=O)[C@@H]2C[C@@H](O)CN2C(=O)[C@@H](NC(=O)C2(F)CC2)C(C)(C)C)CC1` (stereo partly drawn) [Example 19]: the DC50 (commonly the midpoint of the concentration-degradation curve) on STING [1] was less than 200 nM. The IC50 – broadly, the concentration that inhibits the measured activity by half – in experiment [2] was 7.1 nM. Also, on STING [3], the EC50 (as a rule, the concentration giving half of the maximal effect) was less than 200 nM.

The compound `CCn1nc(C)cc1C(=O)N=c1n(C)c2cc(C(N)=O)ccc2n1CCC(CCn1c(=NC(=O)c2cc(C)nn2CC)n(C)c2cc(C(N)=O)ccc21)OCC(=O)NCCOCCOCCOCCOCCC(=O)N1CCN(C(=O)CCOCCC(=O)NCCCCOc2cc(-c3scnc3C)ccc2CNC(=O)[C@@H]2C[C@@H](O)CN2C(=O)[C@@H](NC(=O)C2(F)CC2)C(C)(C)C)CC1` (stereo partly drawn) [Example 20] yielded a DC50 at STING [1] of less than 200 nM. The IC50 in experiment [2] came to 2.7 nM. Further, the EC50 at STING [3] was less than 200 nM.

In the case of `CCn1nc(C)cc1C(=O)N=c1n(C)c2cc(C(N)=O)ccc2n1CCC(CCn1c(=NC(=O)c2cc(C)nn2CC)n(C)c2cc(C(N)=O)ccc21)OCC(=O)NCCOCCOCCOCCOCCC(=O)NCCCCC(=O)N[C@H]1C[C@@H](C(=O)N[C@@H]2CCCc3ccccc32)N(C(=O)[C@@H](NC(=O)[C@H](C)NC)C2CCCCC2)C1` (stereo partly drawn) [Example 10], at STING [4], the DC50 was less than 200 nM. In addition, the half-maximal inhibitory concentration (IC50) in experiment [2] amounted to 4.5 nM. For the same compound, the EC50 at STING [3] is 200 to 1000 nM.

For the origin of these results see EP4663632A1, “COMPOUNDS USEFUL FOR THE MODULATION OF THE ACTIVITY OF STING” (Sulis Therapeutics ApS, priority 2024, dated 2025).
